Test results taken from BigSolDB 2.1.

CC(C)C(N)=O
Conditions | solubility (mole fraction)
in 2-butanone, 273.15 K | 0.0397
in 2-butanone, 279.15 K | 0.045
in 2-butanone, 284.15 K | 0.0497
in 2-butanone, 289.15 K | 0.0548
in 2-butanone, 293.75 K | 0.0597
in 2-butanone, 299.05 K | 0.0657
in 2-butanone, 303.75 K | 0.0713
in 2-butanone, 308.55 K | 0.0773
in 2-butanone, 313.65 K | 0.0841
in 2-butanone, 318.25 K | 0.0904
in 2-butanone, 323.95 K | 0.0988
in THF, 273.15 K | 0.0439
in THF, 279.15 K | 0.0514
in THF, 284.15 K | 0.0585
in THF, 289.15 K | 0.0661
in THF, 293.75 K | 0.0741
in THF, 299.05 K | 0.0837
in THF, 303.75 K | 0.093
in THF, 308.55 K | 0.103
in THF, 313.65 K | 0.115
in THF, 318.25 K | 0.126
in THF, 323.95 K | 0.141
in acetone, 273.15 K | 0.00931
in acetone, 279.15 K | 0.0135
in acetone, 283.95 K | 0.018
in acetone, 289.15 K | 0.0244
in acetone, 293.85 K | 0.0317
in acetone, 299.15 K | 0.0422
in acetone, 303.45 K | 0.0528
in acetone, 309.05 K | 0.0703
in acetone, 313.25 K | 0.0857
in acetone, 319.15 K | 0.114
in acetone, 324.15 K | 0.143
in acetonitrile, 273.15 K | 0.0122
in acetonitrile, 279.15 K | 0.0166
in acetonitrile, 283.95 K | 0.021
in acetonitrile, 289.15 K | 0.0271
in acetonitrile, 293.85 K | 0.0335
in acetonitrile, 299.15 K | 0.0424
in acetonitrile, 303.45 K | 0.051
in acetonitrile, 309.05 K | 0.0645
in acetonitrile, 313.25 K | 0.0766
in acetonitrile, 319.15 K | 0.0961
in acetonitrile, 324.15 K | 0.116
in chloroform, 273.15 K | 0.013
in chloroform, 279.15 K | 0.0176
in chloroform, 284.15 K | 0.0222
in chloroform, 289.15 K | 0.0282
in chloroform, 294.15 K | 0.0352
in chloroform, 299.15 K | 0.0436
in chloroform, 303.75 K | 0.0529
in chloroform, 309.15 K | 0.0656
in chloroform, 313.15 K | 0.0769
in chloroform, 319.15 K | 0.0968
in chloroform, 324.75 K | 0.119
in cyclohexanone, 273.15 K | 0.0267
in cyclohexanone, 279.15 K | 0.0333
in cyclohexanone, 284.15 K | 0.0398
in cyclohexanone, 289.15 K | 0.0473
in cyclohexanone, 293.75 K | 0.0551
in cyclohexanone, 299.05 K | 0.0653
in cyclohexanone, 303.75 K | 0.0756
in cyclohexanone, 308.55 K | 0.0873
in cyclohexanone, 313.65 K | 0.101
in cyclohexanone, 318.25 K | 0.115
in cyclohexanone, 323.95 K | 0.135
in cyclopentanone, 273.15 K | 0.0441
in cyclopentanone, 279.15 K | 0.0544
in cyclopentanone, 284.15 K | 0.0642
in cyclopentanone, 289.15 K | 0.0754
in cyclopentanone, 293.75 K | 0.0871
in cyclopentanone, 299.05 K | 0.102
in cyclopentanone, 303.75 K | 0.117
in cyclopentanone, 308.55 K | 0.134
in cyclopentanone, 313.65 K | 0.154
in cyclopentanone, 318.25 K | 0.174
in cyclopentanone, 323.95 K | 0.201
in ethanol, 273.15 K | 0.0474
in ethanol, 279.15 K | 0.0599
in ethanol, 283.95 K | 0.0715
in ethanol, 289.15 K | 0.086
in ethanol, 293.85 K | 0.102
in ethanol, 299.15 K | 0.121
in ethanol, 303.45 K | 0.139
in ethanol, 309.05 K | 0.166
in ethanol, 313.25 K | 0.189
in ethanol, 319.15 K | 0.226
in ethanol, 324.15 K | 0.26
in ethyl formate, 273.15 K | 0.0121
in ethyl formate, 279.15 K | 0.0153
in ethyl formate, 284.15 K | 0.0186
in ethyl formate, 289.15 K | 0.0223
in ethyl formate, 293.75 K | 0.0263
in ethyl formate, 299.05 K | 0.0316
in ethyl formate, 303.75 K | 0.0371
in ethyl formate, 308.55 K | 0.0432
in ethyl formate, 313.65 K | 0.0508
in ethyl formate, 318.25 K | 0.0583
in ethyl formate, 323.95 K | 0.069
in isobutanol, 273.15 K | 0.0521
in isobutanol, 279.15 K | 0.0633
in isobutanol, 284.15 K | 0.0737
in isobutanol, 289.15 K | 0.0855
in isobutanol, 293.75 K | 0.0976
in isobutanol, 299.05 K | 0.113
in isobutanol, 303.75 K | 0.129
in isobutanol, 308.55 K | 0.146
in isobutanol, 313.65 K | 0.166
in isobutanol, 318.25 K | 0.186
in isobutanol, 323.95 K | 0.213
in isopropanol, 273.15 K | 0.0245
in isopropanol, 279.15 K | 0.0339
in isopropanol, 283.95 K | 0.0433
in isopropanol, 289.15 K | 0.0561
in isopropanol, 293.85 K | 0.0702
in isopropanol, 299.15 K | 0.0901
in isopropanol, 303.45 K | 0.109
in isopropanol, 309.05 K | 0.139
in isopropanol, 313.25 K | 0.166
in isopropanol, 319.15 K | 0.211
in isopropanol, 324.15 K | 0.257
in methanol, 273.15 K | 0.0844
in methanol, 279.15 K | 0.0988
in methanol, 283.95 K | 0.112
in methanol, 289.15 K | 0.127
in methanol, 293.85 K | 0.142
in methanol, 299.15 K | 0.161
in methanol, 303.45 K | 0.177
in methanol, 309.05 K | 0.201
in methanol, 313.25 K | 0.219
in methanol, 319.15 K | 0.247
in methanol, 324.15 K | 0.274
in methyl acetate, 273.15 K | 0.03
in methyl acetate, 279.15 K | 0.0343
in methyl acetate, 284.15 K | 0.0381
in methyl acetate, 289.15 K | 0.0422
in methyl acetate, 293.75 K | 0.0463
in methyl acetate, 299.05 K | 0.0513
in methyl acetate, 303.75 K | 0.056
in methyl acetate, 308.55 K | 0.0611
in methyl acetate, 313.65 K | 0.0668
in methyl acetate, 318.25 K | 0.0722
in methyl acetate, 323.95 K | 0.0794
in n-butanol, 273.15 K | 0.0542
in n-butanol, 279.15 K | 0.0653
in n-butanol, 284.15 K | 0.0756
in n-butanol, 289.15 K | 0.0873
in n-butanol, 293.75 K | 0.0993
in n-butanol, 299.05 K | 0.115
in n-butanol, 303.75 K | 0.13
in n-butanol, 308.55 K | 0.146
in n-butanol, 313.65 K | 0.165
in n-butanol, 318.25 K | 0.184
in n-butanol, 323.95 K | 0.21
in n-propanol, 273.15 K | 0.0352
in n-propanol, 279.15 K | 0.047
in n-propanol, 283.95 K | 0.0585
in n-propanol, 289.15 K | 0.0741
in n-propanol, 293.85 K | 0.0909
in n-propanol, 299.15 K | 0.113
in n-propanol, 303.45 K | 0.135
in n-propanol, 309.05 K | 0.169
in n-propanol, 313.25 K | 0.198
in n-propanol, 319.15 K | 0.245
in n-propanol, 324.15 K | 0.294
